This is an account of results in ChEMBL document CHEMBL1201862, “PubChem BioAssay data set” (2004).

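All cell lines were grown in 96-well plates and treated with compound for 48 hours. GI50 = concentration required for 50% inhibition of growth.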 The source made the active and inactive calls. Cut-off read from the data, not from the text of the source: active = GI50 up to about 1.1 µM and inactive = higher.

Test systems include A549; BT-549; HCC 2998; HOP-62; HOP-92; IGROV-1; KM12; M14; MDA-N; Malme-3M; NCI-H460; OVCAR-3; OVCAR-5; OVCAR-8; SF-268; SK-MEL-28; SK-MEL-5; T47D; UACC-257; UACC-62.
Holding throughout (assay): inhibition of tumour cell growth, NCI panel, 48 h

As to `COC(=O)c1cc(C#N)[nH]c1-c1ccc(Br)s1`, the GI50 with A549 was 8.55 µM (inactive); with BT-549, 10.9 µM (inactive); in the test with HCC 2998, 17.9 µM (inactive); with HOP-62, 8.39 µM (inactive); in the test with HOP-92, 4.1 µM (inactive); with IGROV-1, 7.21 µM (inactive). The GI50 in the test with KM12 is 16.7 µM (inactive); in the test on M14 it was 9.73 µM (inactive); in the test with MDA-N, 13.7 µM (inactive); in the test on Malme-3M it was 7.14 µM (inactive); in the test on NCI-H460, 17.6 µM (inactive); in the test on OVCAR-3, 3.58 µM (inactive). Further, the GI50 in the test on OVCAR-5 was 11.2 µM (inactive); with OVCAR-8 it was 12.8 µM (inactive); with SF-268, 10.1 µM (inactive); with SK-MEL-28, 11.9 µM (inactive); in the test on SK-MEL-5, 4.11 µM (inactive); with T47D, 1.17 µM (inactive). The values for the GI50 with UACC-257 and in the test on UACC-62 were 9.4 µM (inactive) and 11.6 µM (inactive), respectively.
Consider `CCc1nc(N)nc(N)c1-c1ccc(NCCc2ccccc2)c([N+](=O)[O-])c1`, for which the GI50 was 0.0861 µM (active) in the test on A549; 4.62 µM (inactive) in the test on BT-549; 0.745 µM (active) with HCC 2998; 1.64 µM (inactive) in the test on HOP-62; 2.21 µM (inactive) in the test with HOP-92; 0.394 µM (active) with IGROV-1. The GI50 in the test on KM12 was 1.33 µM (inactive); in the test on M14 it was 0.276 µM (active); in the test with MDA-N, 0.195 µM (active); with Malme-3M it was 2.38 µM (inactive); in the test on NCI-H460, 0.0687 µM (active); in the test on OVCAR-3 it was 1.44 µM (inactive). For the same compound, the GI50 was 17.2 µM (inactive) with OVCAR-5; 0.394 µM (active) in the test on OVCAR-8; 0.527 µM (active) with SF-268; 2.74 µM (inactive) with SK-MEL-28; 0.486 µM (active) in the test on SK-MEL-5; 4.51 µM (inactive) in the test on T47D. The GI50 in the test with UACC-257 was 1.77 µM (inactive); with UACC-62, 0.162 µM (active).
